# Key:
# Assay type in all cases: in vivo
# [1] = tested on: redroot pigweed (Amaranthus retroflexus, AMARE); test: Pre-emerge test, greenhouse herbicide activity screening; conditions: pre-emerge, rated 14 days after application, 0 = no damage, 100 = complete death
# Summary of the method: (§1)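 Plants grown in 10 cm pots of sandy loam mix received acetone-dissolved compounds through a moving flat-fan nozzle. Doses ranged from 15 to 1000 g ai/ha. Pre-emerge pots were seeded one day earlier, post-emerge pots 8–21 days earlier. Fourteen days on, each pot was graded 0–100 for damage.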
# [2] = tested on: barnyardgrass (Echinochloa crus-galli, ECHCG); test: as above; conditions: pre-emerge, rated 14 days after application, 0 = no damage, 100 = complete death
# Summary of the method: (§2)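 Rating: 0–100 visual injury, 14 DAA. Application: acetone, 187 l/ha, 15–1000 g ai/ha, flat-fan track sprayer with nozzle 40–45 cm above soil or canopy. Post-emerge runs used 0.25% v/v surfactant on 2–3 leaf plants.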
# [3] = tested on: common ragweed (Ambrosia artemisizfolia L., AMBEL); test: as above; conditions: pre-emerge, rated 14 days after application, 0 = no damage, 100 = complete death
# Summary of the method: as §2
# [4] = tested on: green foxtail (Setaria viridis, SETVI); test: as above; conditions: pre-emerge, rated 14 days after application, 0 = no damage, 100 = complete death
# Summary of the method: as §2
# [5] = tested on: ivyleaf morningglory (Ipomoea hederacea, IPOHE); test: as above; conditions: pre-emerge, rated 14 days after application, 0 = no damage, 100 = complete death
# Summary of the method: as §2
# [6] = tested on: johnsongrass (Sorghum halepense, SORHA); test: as above; conditions: pre-emerge, rated 14 days after application, 0 = no damage, 100 = complete death
# Summary of the method: as §2
# [7] = tested on: lambsquarters (Chenopodium album, CHEAL); test: as above; conditions: pre-emerge, rated 14 days after application, 0 = no damage, 100 = complete death
# Summary of the method: as §2
# [8] = tested on: large crabgrass (Digitaria sanguinalis, DIGSA); test: as above; conditions: pre-emerge, rated 14 days after application, 0 = no damage, 100 = complete death
# Summary of the method: as §2
# [9] = tested on: sicklepod (Cassia obtusifolia, CASOB); test: as above; conditions: pre-emerge, rated 14 days after application, 0 = no damage, 100 = complete death
# Summary of the method: as §2
# [10] = tested on: velvetleaf (Abutilon theophrasti, ABUTH); test: as above; conditions: pre-emerge, rated 14 days after application, 0 = no damage, 100 = complete death
# Summary of the method: as §2
# [11] = tested on: field corn (Zea mays L., var. Dekalb 535, CORN); test: Pre-emerge test, crop safety; conditions: pre-emerge, rated 14 days after application, 0 = no damage, 100 = complete death
# Summary of the method: (§3)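 Sandy loam pots; pre-emerge: sown 1 d pre-spray, surface-watered after, then bottom-watered. Post-emerge: sown 8–21 d before, 2–3 leaf stage, + 0.25% v/v NIS, bottom-watered. Acetone, 187 l/ha track spray, 15–1000 g ai/ha. 0–100 injury score, day 14.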
# [12] = tested on: upland rice (Oryza sp., var. Tebonnet, RICE); test: Pre-emerge test, crop safety; conditions: pre-emerge, rated 14 days after application, 0 = no damage, 100 = complete death
# Summary of the method: as §3
# [13] = tested on: barnyardgrass (Echinochloa crus-galli, ECHCG); test: Post-emerge test, greenhouse herbicide activity screening; conditions: phytotoxicity rating 0-100 (0 no damage, 100 complete death), 14 days after application
# Summary of the method: (§4)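 Applied at 15–1000 g ai/ha from acetone in 187 l/ha spray volume. Post-emergence applications included 0.25% v/v non-ionic surfactant and reached plants sown 8–21 days before. Pre-emergence applications were incorporated by surface watering. Efficacy or crop damage was rated on a 0–100 scale after 14 days.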
# [14] = tested on: common ragweed (Ambrosia artemisizfolia L., AMBEL); test: as above; conditions: phytotoxicity rating 0-100 (0 no damage, 100 complete death), 14 days after application
# Summary of the method: as §4
# [15] = tested on: green foxtail (Setaria viridis, SETVI); test: as above; conditions: phytotoxicity rating 0-100 (0 no damage, 100 complete death), 14 days after application
# Summary of the method: as §4
# [16] = tested on: ivyleaf morningglory (Ipomoea hederacea, IPOHE); test: as above; conditions: phytotoxicity rating 0-100 (0 no damage, 100 complete death), 14 days after application
# Summary of the method: as §4
# [17] = tested on: lambsquarters (Chenopodium album, CHEAL); test: as above; conditions: phytotoxicity rating 0-100 (0 no damage, 100 complete death), 14 days after application
# Summary of the method: as §4
# [18] = tested on: large crabgrass (Digitaria sanguinalis, DIGSA); test: as above; conditions: phytotoxicity rating 0-100 (0 no damage, 100 complete death), 14 days after application
# Summary of the method: as §4
# [19] = tested on: redroot pigweed (Amaranthus retroflexus, AMARE); test: as above; conditions: phytotoxicity rating 0-100 (0 no damage, 100 complete death), 14 days after application
# Summary of the method: as §4
# [20] = tested on: sicklepod (Cassia obtusifolia, CASOB); test: as above; conditions: phytotoxicity rating 0-100 (0 no damage, 100 complete death), 14 days after application
# Summary of the method: as §4
# [21] = tested on: velvetleaf (Abutilon theophrasti, ABUTH); test: as above; conditions: phytotoxicity rating 0-100 (0 no damage, 100 complete death), 14 days after application
# Summary of the method: as §4
# [22] = tested on: field corn (Zea mays L., var. Dekalb 535, CORN); test: Post-emerge test, crop safety; conditions: phytotoxicity rating 0-100 (0 no damage, 100 complete death), 14 days after application
# Summary of the method: as §1
# [23] = tested on: upland rice (Oryza sp., var. Tebonnet, RICE); test: Post-emerge test, crop safety; conditions: phytotoxicity rating 0-100 (0 no damage, 100 complete death), 14 days after application
# Summary of the method: as §1
structure (smiles),measurement,setting,value
CCOC(=O)C(C)Nc1cc(Cl)cc(F)c1-n1c(=O)cc(C(F)(F)F)n(C)c1=O (stereo not shown) [Compound 1-54],"Pre-emerge Herbicidal Activity AMARE (phytotoxicity rating, scale 0-100)",[1]; 63 g ai/ha,100
same,"Pre-emerge Herbicidal Activity AMARE (phytotoxicity rating, scale 0-100)",[1]; 250 g ai/ha,100
same,"Pre-emerge Herbicidal Activity ECHCG (phytotoxicity rating, scale 0-100)",[2]; 63 g ai/ha,45
same,"Pre-emerge Herbicidal Activity ECHCG (phytotoxicity rating, scale 0-100)",[2]; 250 g ai/ha,100
same,"Pre-emerge Herbicidal Activity AMBEL (phytotoxicity rating, scale 0-100)",[3]; 63 g ai/ha,100
same,"Pre-emerge Herbicidal Activity AMBEL (phytotoxicity rating, scale 0-100)",[3]; 250 g ai/ha,100
same,"Pre-emerge Herbicidal Activity SETVI (phytotoxicity rating, scale 0-100)",[4]; 63 g ai/ha,90
same,"Pre-emerge Herbicidal Activity SETVI (phytotoxicity rating, scale 0-100)",[4]; 250 g ai/ha,100
same,"Pre-emerge Herbicidal Activity IPOHE (phytotoxicity rating, scale 0-100)",[5]; 63 g ai/ha,100
same,"Pre-emerge Herbicidal Activity IPOHE (phytotoxicity rating, scale 0-100)",[5]; 250 g ai/ha,100
same,"Pre-emerge Herbicidal Activity SORHA (phytotoxicity rating, scale 0-100)",[6]; 63 g ai/ha,80
same,"Pre-emerge Herbicidal Activity SORHA (phytotoxicity rating, scale 0-100)",[6]; 250 g ai/ha,100
same,"Pre-emerge Herbicidal Activity CHEAL (phytotoxicity rating, scale 0-100)",[7]; 63 g ai/ha,100
same,"Pre-emerge Herbicidal Activity CHEAL (phytotoxicity rating, scale 0-100)",[7]; 250 g ai/ha,100
same,"Pre-emerge Herbicidal Activity DIGSA (phytotoxicity rating, scale 0-100)",[8]; 63 g ai/ha,80
same,"Pre-emerge Herbicidal Activity DIGSA (phytotoxicity rating, scale 0-100)",[8]; 250 g ai/ha,100
same,"Pre-emerge Herbicidal Activity CASOB (phytotoxicity rating, scale 0-100)",[9]; 63 g ai/ha,30
same,"Pre-emerge Herbicidal Activity CASOB (phytotoxicity rating, scale 0-100)",[9]; 250 g ai/ha,80
same,"Pre-emerge Herbicidal Activity ABUTH (phytotoxicity rating, scale 0-100)",[10]; 63 g ai/ha,100
same,"Pre-emerge Herbicidal Activity ABUTH (phytotoxicity rating, scale 0-100)",[10]; 250 g ai/ha,100
same,"Pre-emerge crop damage CORN (phytotoxicity rating, scale 0-100)",[11]; 63 g ai/ha,95
same,"Pre-emerge crop damage CORN (phytotoxicity rating, scale 0-100)",[11]; 250 g ai/ha,99
same,"Pre-emerge crop damage RICE (phytotoxicity rating, scale 0-100)",[12]; 63 g ai/ha,60
same,"Pre-emerge crop damage RICE (phytotoxicity rating, scale 0-100)",[12]; 250 g ai/ha,95
same,Post-emerge Herbicidal Activity ECHCG,[13]; 63 g ai/ha,20
same,Post-emerge Herbicidal Activity ECHCG,[13]; 250 g ai/ha,75
same,Post-emerge Herbicidal Activity AMBEL,[14]; 63 g ai/ha,100
same,Post-emerge Herbicidal Activity AMBEL,[14]; 250 g ai/ha,100
same,Post-emerge Herbicidal Activity SETVI,[15]; 63 g ai/ha,40
same,Post-emerge Herbicidal Activity SETVI,[15]; 250 g ai/ha,60
same,Post-emerge Herbicidal Activity IPOHE,[16]; 63 g ai/ha,100
same,Post-emerge Herbicidal Activity IPOHE,[16]; 250 g ai/ha,100
same,Post-emerge Herbicidal Activity CHEAL,[17]; 63 g ai/ha,100
same,Post-emerge Herbicidal Activity CHEAL,[17]; 250 g ai/ha,100
same,Post-emerge Herbicidal Activity DIGSA,[18]; 63 g ai/ha,40
same,Post-emerge Herbicidal Activity DIGSA,[18]; 250 g ai/ha,70
same,Post-emerge Herbicidal Activity AMARE,[19]; 63 g ai/ha,100
same,Post-emerge Herbicidal Activity AMARE,[19]; 250 g ai/ha,100
same,Post-emerge Herbicidal Activity CASOB,[20]; 63 g ai/ha,90
same,Post-emerge Herbicidal Activity CASOB,[20]; 250 g ai/ha,100
same,Post-emerge Herbicidal Activity ABUTH,[21]; 63 g ai/ha,100
same,Post-emerge Herbicidal Activity ABUTH,[21]; 250 g ai/ha,100
same,Post-emerge Herbicidal Activity CORN (crop damage),[22]; 63 g ai/ha,50
same,Post-emerge Herbicidal Activity CORN (crop damage),[22]; 250 g ai/ha,70
same,Post-emerge Herbicidal Activity RICE (crop damage),[23]; 63 g ai/ha,40
same,Post-emerge Herbicidal Activity RICE (crop damage),[23]; 250 g ai/ha,45

# From patent publication US6355799B1, “Substituted benzene compounds, process for their preparation, and herbicidal and defoliant compositions containing them” (ISK Americas Incorporated, priority 1997, dated 2002)
